Source: patent publication US20250040539A1, “COMPOSITION COMPRISING AN ANTIMICROBIAL AGENT AND A CARBOXAMIDE” (BASF SE, priority 2021, published 2025)

Tests used:
Type in all cases: cell-based
[1] = test system: bacterial mix: Escherichia coli DSM 1576, Alcaligenes faecalis DSM 13644, Pseudomonas aeuginosa ATCC 15442, Staphylococcus aureus ATCC 6538, Burkholderia …; test: Preservative activity of a basic composition (10% PG in water, pH 7) with 2-phenoxyethanol against bacterial contamination (Example 2.1); conditions: 10% PG + 0.36% PE + 0.04% amide; for d7 [CFU/ml]: day 7; for d14 [CFU/ml]: day 14; for d21 [CFU/ml]: day 21
Experimental: (§1) An aqueous composition of pH 7 comprising 10% by weight of propyleneglycol (PG) as organic solvent, 0.36% by weight of 2-phenoxyethanol (PE) as antimicrobial and 0.04% by weight of the amide listed in the below table was tested for its preserving activity against bacterial contamination (the weight percentages relate to the total weight of the composition). For this purpose, the samples were contaminated with a bacterial mix consisting of: • Escherichia coli DSM 1576 • Alcaligenes faecalis DSM 13644 • Pseudomonas aeuginosa ATCC 15442 • Staphylococcus aureus ATCC 6538 • Burkholderia cepacia DSM 7288 • Pseudomonas putida DSM 12735
The samples were inoculated with the bacterial mix at day 0, 7 and 14 to obtain 10E+06 to 10E+07 CFU/ml inoculation in the test samples (compositions listed in the below table) consisting of 10% by weight of propylene glycol in water and stored at 25° C. for 21 days.
(§2) CFU was determined before re-inoculation at days 7 and 14, and on day 21.

[2] = test system: fungal mix (including yeasts and molds): Aspergillus brasiliensis DSM 1988, Rhodotorula mucilaginosa DSM 13621, Yarrowia lipolytica DSM 8218; test: Preservative activity of a basic composition (10% PG in water, pH 7) with 2-phenoxyethanol against fungal contamination (Example 1.1); conditions: 10% PG + 0.36% PE + 0.04% Amide in water, pH 7, 25° C.; for d7 [CFU/ml]: fungal mix inoculated at day 0, 7 and 14 (1-3x10E+05 CFU/ml), day 7 before re-inoculation; for d14 [CFU/ml] / d21 [CFU/ml]: fungal mix inoculated at day 0, 7 and 14; for d14 [CFU/ml]: day 14 before re-inoculation; for d21 [CFU/ml]: day 21
Experimental: An aqueous composition of pH 7 comprising 10% by weight of propyleneglycol (PG) as organic solvent, 0.36% by weight of 2-phenoxyethanol (PE) as antimicrobial and 0.04% by weight of the amide listed in the below table was tested for its preserving activity against fungal contamination (the percentages are weight percent and relate to the total weight of the composition). For this purpose, the samples were contaminated with a fungal mix (including yeasts and molds) consisting of: • Aspergillus brasiliensis DS M 1988 • Rhodotorula mucilaginosa DSM 13621 • Yarrowia lipolytica DS M 8218
To control the efficacy, following control compositions were tested: • “Reference”, consisting of only 10% by weight of propylene glycol in water • “Comparative 1” containing 10% by weight of propylene glycol and amide in the given concentration, but no 2-phenoxyethanol • […] in the given concentration, but no amide.
The samples were inoculated with the fungal mix at day 0, 7 and 14 to obtain a cell density in the range of 1-3×10E+05 CFU/ml (CFU=colony forming units) in the test samples (compositions listed in the below table) and stored at 25° C. for 21 days.
as §2

[3] = test system: fungal mix: Aspergillus brasiliensis DSM 1988, Rhodotorula mucilaginosa DSM 13621, Yarrowia lipolytica DSM 8218; test: Preservative activity in a manual dishwashing composition (MDW, pH 7.1) with 1.0% 2-phenoxyethanol against fungal mix (Example 1.2); conditions: MDW + 1.0% PE + 0.6% amide
Experimental: (§3) A manual dish wash detergent (MDW) of pH 7.1 containing the following components was used:
The samples were contaminated with a fungal mix consisting of: • Aspergillus brasiliensis DSM 1988 • Rhodotorula mucilaginosa DSM 13621 • Yarrowia lipolytica DSM 8218
The samples were inoculated with the fungal mix at day 0 and 7 to obtain 1-3×10E+05 CFU/ml inoculation in the test sample consisting of the above-defined dish wash detergent MDW and stored at 25° C. for 21 days. CFU was determined before re-inoculation at day 7, and on days 14 and 21.
Any CFU value at d7, d14 or d21 obtained with a MDW sample of the invention containing 2-phenoxyethanol and amide (MDW+1.0% PE+x % of Amide) lower than the respective value of the comparative example (MDW+1.0% by weight of 2-phenoxyethanol) indicates a better performance of the inventive combination of 2-phenoxyethanol with the amide.

[4] = test system: bacterial mix: Escherichia coli DSM 1576, Alcaligenes faecalis DSM 13644, Pseudomonas aeruginosa ATCC 15442, Staphylococcus aureus ATCC 6538, Burkholderia …; test: Preservative activity in a manual dishwashing composition (MDW, pH 7.1) with 2.0% 2-phenoxyethanol against bacterial mix (Example 2.4); conditions: for d7 [CFU/ml]: day 7; for d14 [CFU/ml]: day 14; for d21 [CFU/ml]: day 21
Experimental: as §3
The samples were contaminated with a bacterial mix consisting of: • Escherichia coli DSM 1576 • Alcaligenes faecalis DSM 13644 • Pseudomonas aeruginosa ATCC 15442 • Staphylococcus aureus ATCC 6538 • Burkholderia cepacia DSM 7288 • Pseudomonas putida DSM 12735
The samples were inoculated with the bacterial mix at day 0 and 7 to obtain 10E+06 to 10E+07 CFU/ml inoculation in the test sample and stored at 25° C. for 21 days. CFU was determined before re-inoculation at day 7 and on days 14 and 21.
Any CFU value at day 7 (d7), day 14 (d14) or day 21 (d21) obtained with a sample according to the invention containing 2-phenoxyethanol and amide (MDW+2.0% PE+x % Amide) lower than the respective value of the “comparative 2” example (MOW+2.0% by weight of 2-phenoxyethanol) indicates a better performance.

[5] = test system: bacterial mix: Escherichia coli DSM 1576, Alcaligenes faecalis DSM 13644, Pseudomonas aeruginosa ATCC 15442, Staphylococcus aureus ATCC 6538, Burkholderia …; test: Preservative activity of a basic composition (10% PG in water, pH 7) with 4,4'-dichloro-2-hydroxydiphenyl ether (diclosan) against bacterial contamination (Example 2.2); conditions: 10% PG + 0.015% diclosan, no amide (Comparative); day 7
Experimental: as §1, with “0.015%” for “0.36%”, “4,4′-dichloro-2-hydroxydiphenyl ether (diclosan)” for “2-phenoxyethanol (PE)”, “0.04 or 0.1%” for “0.04%”, “amides” for “amide”, “aeruginosa” for “aeuginosa”
The samples were inoculated with the bacterial mix at day 0 to obtain 10E+06 to 10E+07 CFU/ml inoculation in the test sample and stored at 25° C. for 7 days.
CFU was determined at day 7.
Any CFU value at day 7 (d7) obtained with a sample according to the invention containing diclosan and amide (10% PG+0.015% diclosan+Amide in water) lower than the respective value of the “comparative 3” example (10% by weight of propyleneglycol+0.015% by weight of 4,4′-dichloro-2-hydroxydiphenyl ether (diclosan) in water) indicates a better performance.

[6] = MDW + 0.25% amide, no PE (Comparative 1c)
[7] = MDW + 5.0% amide, no PE (Comparative 1a)

For `CCCCCC(CCC)C(=O)N(C)C` (stereo not shown) [2-Propyl-heptanoyl-N,N-dimethylamide], the “d7 [CFU/ml]” value [1] was under 10 CFU/ml, the “d14 [CFU/ml]” value [1] was 90 CFU/ml and the “d21 [CFU/ml]” value [1] was 2,700 CFU/ml.

With `CCCCCC(CCC)C(=O)N(C)C` (stereo not shown) [2-Propylheptanoyl-N,N-dimethylamide] the “d7 [CFU/ml]” value [2] was 5,200 CFU/ml, the “d14 [CFU/ml]” value [2] was 3,250 CFU/ml and the “d21 [CFU/ml]” value [2] was 8,000 CFU/ml.

For `CCCCCCCCCCCC(=O)N(C)C` [Dodecanoyl-N,N-dimethylamide], the “d7 [CFU/ml]” value [1] was under 10 CFU/ml, the “d14 [CFU/ml]” value [1] was under 10 CFU/ml and the “d21 [CFU/ml]” value [1] was 450 CFU/ml. The “d7 [CFU/ml]” value [2] was 25 CFU/ml, the “d14 [CFU/ml]” value [2] was 170 CFU/ml and the “d21 [CFU/ml]” value [2] was 245 CFU/ml.

In the case of `CCCCCCN(CCCCCC)C(C)=O` [Ethanoyl-N,N-dihexylamide], the “d7 [CFU/ml]” value [1] is reported as 75 CFU/ml, the “d14 [CFU/ml]” value [1] is reported as 200 CFU/ml and the “d21 [CFU/ml]” value [1] is reported as 1,450 CFU/ml. The “d7 [CFU/ml]” value [2] was 3,100 CFU/ml, the “d14 [CFU/ml]” value [2] was 2,750 CFU/ml and the “d21 [CFU/ml]” value [2] was 2,450 CFU/ml.

`CC(CC(=O)N(C)C)CC(C)(C)C` (stereo not shown) [Isononanoyl-N,N-dimethylamide] was tested, and the “d7 [CFU/ml]” value [1] was 3,850 CFU/ml, the “d14 [CFU/ml]” value [1] was 13,500 CFU/ml and the “d21 [CFU/ml]” value [1] was 5,000 CFU/ml. The “d7 [CFU/ml]” value [2] was 3,600 CFU/ml, the “d14 [CFU/ml]” value [2] was 3,350 CFU/ml and the “d21 [CFU/ml]” value [2] was 15,000 CFU/ml.

With `CCCCC(CC)CNC(=O)/C=C\C(=O)O` (stereo not shown) [Maleic acid N-2-ethylhexyl-amide] the “d7 [CFU/ml]” value ([3]; day 7) was 14,500 CFU/ml, the “d14 [CFU/ml]” value ([3]; day 14) was 2,900 CFU/ml and the “d21 [CFU/ml]” value ([3]; day 21) was 225 CFU/ml. The “d7 [CFU/ml]” value [1] was 545 CFU/ml, the “d14 [CFU/ml]” value [1] was 22,000 CFU/ml and the “d21 [CFU/ml]” value [1] was 20,500 CFU/ml. For the same compound, the “d7 [CFU/ml]” value [2] was 875 CFU/ml, the “d14 [CFU/ml]” value [2] was 8,500 CFU/ml and the “d21 [CFU/ml]” value [2] was 18,500 CFU/ml. The “d7 [CFU/ml]” value [4, 6] was >100,000 CFU/ml, the “d14 [CFU/ml]” value [4, 6] was >100,000 CFU/ml and the “d21 [CFU/ml]” value [4, 6] was >100,000 CFU/ml. The “d7 [CFU/ml]” value ([4]; MDW + 1.0% amide, no PE) was >100,000 CFU/ml, the “d14 [CFU/ml]” value ([4]; MDW + 1.0% amide, no PE) was >100,000 CFU/ml and the “d21 [CFU/ml]” value ([4]; MDW + 1.0% amide, no PE) was >100,000 CFU/ml. The “d7 [CFU/ml]” value ([4]; MDW + 2.0% PE + 0.25% amide) was under 10 CFU/ml, the “d14 [CFU/ml]” value ([4]; MDW + 2.0% PE + 0.25% amide) was under 10 CFU/ml and the “d21 [CFU/ml]” value ([4]; MDW + 2.0% PE + 0.25% amide) was under 10 CFU/ml. For the same compound, the “d7 [CFU/ml]” value ([4]; MDW + 2.0% PE + 1.0% amide) was under 10 CFU/ml, the “d14 [CFU/ml]” value ([4]; MDW + 2.0% PE + 1.0% amide) was under 10 CFU/ml and the “d21 [CFU/ml]” value ([4]; MDW + 2.0% PE + 1.0% amide) was under 10 CFU/ml. For the same compound, the “d7 [CFU/ml]” value ([4]; MDW + 2.0% PE + 5.0% amide) was under 10 CFU/ml, the “d14 [CFU/ml]” value ([4]; MDW + 2.0% PE + 5.0% amide) was under 10 CFU/ml and the “d21 [CFU/ml]” value ([4]; MDW + 2.0% PE + 5.0% amide) was under 10 CFU/ml. The “d7 [CFU/ml]” value [4, 7] was >100,000 CFU/ml, the “d14 [CFU/ml]” value [4, 7] was >100,000 CFU/ml and the “d21 [CFU/ml]” value [4, 7] was >100,000 CFU/ml.

`Oc1cc(Cl)ccc1Oc1ccc(Cl)cc1` [diclosan, 4,4′-dichloro-2-hydroxydiphenyl ether, reference compound] was tested, and the “d7 [CFU/ml]” value [5] was >100,000 CFU/ml.

With `CCCCCCCC(=O)N(C)C` [n-Octanoyl-N,N-dimethylamide] the “d7 [CFU/ml]” value [1] was 25 CFU/ml, the “d14 [CFU/ml]” value [1] was 2,100 CFU/ml and the “d21 [CFU/ml]” value [1] was 5,550 CFU/ml.

For `CCCCN(CCCC)C(=O)CC` [n-Propanoyl-N,N-dibutylamide], the “d7 [CFU/ml]” value [1] was 39,500 CFU/ml, the “d14 [CFU/ml]” value [1] was 39,000 CFU/ml and the “d21 [CFU/ml]” value [1] was 23,500 CFU/ml. For the same compound, the “d7 [CFU/ml]” value [2] was 1,750 CFU/ml, the “d14 [CFU/ml]” value [2] was 3,750 CFU/ml and the “d21 [CFU/ml]” value [2] was 25,000 CFU/ml.
